Laboratory results as given in patent publication US10131652B2, “Pyrimidinyloxy benzene derivatives as herbicides” (E. I. DU PONT DE NEMOURS AND COMPANY, priority 2014, dated 2018).
Read-outs that look alike come from different tables or passages of the source.

Experiments:
Assay type in all cases: in vivo
[1] = tested on: galium (catchweed bedstraw, Galium aparine); assay: Test D pre-/postemergence plant response; settings: Galium; for pest or weed control at 31 g/ha: 31 g ai/ha; for pest or weed control at 62 g/ha: 62 g ai/ha; for pest or weed control at 125 g/ha: 125 g ai/ha
Source text: (§1) Seeds of plant species selected from blackgrass (Alopecurus myosuroides), Italian ryegrass (Lolium multiflorum), winter wheat (Triticum aestivum), galium (catchweed bedstraw, Galium aparine), corn (Zea mays), large (Lg) crabgrass (Digitaria sanguinalis), giant foxtail (Setaria faberii), johnsongrass (Sorghum halepense), lambsquarters (Chenopodium album), morningglory (Ipomoea coccinea), yellow nutsedge (Cyperus esculentus), pigweed (Amaranthus retroflexus), ragweed (common ragweed, Ambrosia elatior), soybean (Glycine max), bamyardgrass (Echinochloa crus-galli), oilseed rape (Brassica napus), waterhemp (common waterhemp, Amaranthus rudis), and velvetleaf (Abutilon theophrasti) were planted into a blend of loam soil and sand and treated preemergence with test chemicals formulated in a non-phytotoxic solvent mixture which included a surfactant. At the same time, plants selected from these crop and weed species and also kochia (Kochia scoparia), wild oat (Avena fatua), and chickweed (common chickweed, Stellaria media) were planted in pots containing Redi-Earth® planting medium (Scotts Company, 14111 Scottslawn Road, Marysville, Ohio 43041) comprising spaghnum peat moss, vermiculite, wetting agent and starter nutrients and treated with postemergence applications of test chemicals formulated in the same manner. Plants ranged in height from 2 to 18 cm (1- to 4-leaf stage) for postemergence treatments. Treated plants and controls were maintained in a greenhouse for 13 to 15 days, after which time all species were compared to controls and visually evaluated. Plant response ratings, summarized in Table D, are based on a scale of 0 to 100 where 0 is no effect and 100 is complete control. A dash (-) response means no test result.

[2] = tested on: oilseed rape (Brassica napus); assay: Test D pre-/postemergence plant response; settings: Brassica napus; for plant injury at 31 g/ha: 31 g ai/ha
Source text: as §1

[3] = tested on: yellow nutsedge (Cyperus esculentus); assay: Test D pre-/postemergence plant response; settings: Cyperus; for pest or weed control at 31 g/ha: 31 g ai/ha; for pest or weed control at 62 g/ha: 62 g ai/ha; for pest or weed control at 125 g/ha: 125 g ai/ha
Source text: as §1

[4] = tested on: winter wheat (Triticum aestivum); assay: Test D pre-/postemergence plant response; settings: Triticum aestivum; for plant injury at 31 g/ha: 31 g ai/ha; for plant injury at 62 g/ha: 62 g ai/ha; for plant injury at 125 g/ha: 125 g ai/ha
Source text: as §1

[5] = tested on: ragweed (common ragweed, Ambrosia elatior); assay: Test D pre-/postemergence plant response; settings: Ambrosia artemisiifolia; for pest or weed control at 31 g/ha: 31 g ai/ha; for pest or weed control at 62 g/ha: 62 g ai/ha; for pest or weed control at 125 g/ha: 125 g ai/ha
Source text: as §1

[6] = tested on: johnsongrass (Sorghum halepense); assay: Test D pre-/postemergence plant response; settings: Sorghum halepense; for pest or weed control at 31 g/ha: 31 g ai/ha; for pest or weed control at 62 g/ha: 62 g ai/ha; for pest or weed control at 125 g/ha: 125 g ai/ha
Source text: as §1

[7] = tested on: giant foxtail (Setaria faberii); assay: Test B pre-/postemergence plant response; settings: for pest or weed control at 31 g/ha: 31 g ai/ha
Outline: (§2)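 Evaluation is visual, about 10 days after application, rating injury from 0 (none) to 100 (complete control) relative to untreated controls. Application was a preemergence soil spray on seeded pots or a postemergence spray on one- to two-leaf plants.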

[8] = tested on: pigweed (Amaranthus retroflexus); assay: Test B pre-/postemergence plant response; settings: for pest or weed control at 31 g/ha: 31 g ai/ha
Outline: as §2

corn (Zea mays) = assay: Test B pre-/postemergence plant response; settings: Zea mays, post-emergence, 240 h
Outline: as §2

[9] = tested on: wheat (Triticum aestivum); assay: Test B pre-/postemergence plant response; settings: Triticum aestivum, post-emergence, 240 h, read-out: Plant response rating, Wheat
Outline: as §2

[10] = tested on: barnyardgrass (Echinochloa crus-galli); assay: Test B pre-/postemergence plant response; settings: for pest or weed control at 31 g/ha: 31 g ai/ha
Outline: as §2

rice (Oryza sativa) = assay: Test C flooded paddy test plant response; settings: Oryza sativa; Flood, 250 g ai/ha; scale of 0 to 100 where 0 is no effect and 100 is complete control; 13 to 15 days; read-out: Rice plant response rating
Outline: (§3)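 Two-leaf stage → flood to 3 cm → compound into water → hold depth, greenhouse 13–15 d → visual score vs controls (0 none, 100 complete control).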

[11] = tested on: small-flower umbrella sedge (Cyperus difformis); assay: Test C flooded paddy test plant response; settings: Cyperus difformis; Flood, 250 g ai/ha; scale of 0 to 100 where 0 is no effect and 100 is complete control; 13 to 15 days; read-out: Sedge, Umbrella plant response rating
Outline: as §3

[12] = tested on: ducksalad (Heteranthera limosa); assay: Test C flooded paddy test plant response; settings: Heteranthera limosa; Flood, 250 g ai/ha; scale of 0 to 100 where 0 is no effect and 100 is complete control; 13 to 15 days; read-out: Ducksalad plant response rating
Outline: as §3

[13] = tested on: barnyardgrass (Echinochloa crus-galli); assay: Test C flooded paddy test plant response; settings: Echinochloa crus-galli; Flood, 250 g ai/ha; scale of 0 to 100 where 0 is no effect and 100 is complete control; 13 to 15 days; read-out: Barnyardgrass plant response rating
Outline: as §3

[14] = post-emergence, Postemergence, scale 0 to 100, 0 no effect, 100 complete control, read-out: Plant response rating, Galium
[15] = pre-emergence, Preemergence, scale 0 to 100 (0 no effect, 100 complete control), read-out: Plant response rating, Galium
[16] = post-emergence, Postemergence, scale 0 to 100, 0 no effect, 100 complete control, read-out: Plant response rating, Nutsedge, Yellow
[17] = pre-emergence, Preemergence, scale 0 to 100 (0 no effect, 100 complete control), read-out: Plant response rating, Nutsedge, Yellow
[18] = post-emergence, Postemergence, scale 0 to 100, 0 no effect, 100 complete control, read-out: Plant response rating, Wheat
[19] = pre-emergence, Preemergence, scale 0 to 100 (0 no effect, 100 complete control), read-out: Plant response rating, Wheat
[20] = post-emergence, Postemergence, scale 0 to 100, 0 no effect, 100 complete control, read-out: Plant response rating, Ragweed
[21] = pre-emergence, Preemergence, scale 0 to 100 (0 no effect, 100 complete control), read-out: Plant response rating, Ragweed
[22] = post-emergence, Postemergence, scale 0 to 100, 0 no effect, 100 complete control, read-out: Plant response rating, Johnsongrass
[23] = pre-emergence, Preemergence, scale 0 to 100 (0 no effect, 100 complete control), read-out: Plant response rating, Johnsongrass
[24] = Preemergence, 125 g ai/ha, 0 to 100 scale (0 no effect, 100 complete control)
[25] = 125 g ai/ha, postemergence, 0 to 100 scale, 0 no effect, 100 complete control
[26] = Postemergence, 31 g ai/ha, 0 to 100 scale (0 no effect, 100 complete control)

Fc1cccc(Oc2ncc(Br)cn2)c1-c1cc(C(F)F)no1 [Compound 145, 5-bromo-2-[2-[3-(difluoromethyl)-5-isoxazolyl]-3-fluorophenoxy]pyrimidine]
65%: pest or weed control at 125 g/ha [5, 20]
10%: pest or weed control at 125 g/ha [3, 16] | plant injury at 125 g/ha [4, 18] | plant injury at 125 g/ha ([4]; pre-emergence, Preemergence, read-out: Plant response rating (scale 0 to 100), Wheat) | pest or weed control at 16 g/ha ([6]; pre-emergence, Preemergence, 16 g ai/ha, scale 0 to 100 (0 no effect, 100 complete control), read-out: Plant response rating, Johnsongrass)
30%: pest or weed control at 62 g/ha [3, 17] | Corn plant response rating (crop injury, 0 = no effect, 100 = complete kill) at 31 g/ha (corn (Zea mays); [26])
20%: plant injury at 31 g/ha [9, 26]
90%: pest or weed control at 125 g/ha [1, 14] | pest or weed control at 16 g/ha ([1]; pre-emergence, Preemergence, 16 g ai/ha, scale 0 to 100 (0 no effect, 100 complete control), read-out: Plant response rating, Galium) | pest or weed control at 62 g/ha [6, 23] | pest or weed control at 125 g/ha ([7]; Setaria faberi, post-emergence, 240 h, 125 g ai/ha, postemergence, 0 to 100 scale, 0 no effect, 100 complete control, read-out: Plant response rating, Foxtail, Giant) | pest or weed control at 31 g/ha ([7]; Setaria faberi, pre-emergence, 240 h, Preemergence, 0 to 100 scale where 0 is no effect and 100 is complete control, read-out: Plant response rating, Foxtail, Giant) | pest or weed control at 250 g/ha [12]
0%: pest or weed control at 16 g/ha ([3]; pre-emergence, Preemergence, 16 g ai/ha, scale 0 to 100 (0 no effect, 100 complete control), read-out: Plant response rating, Nutsedge, Yellow) | pest or weed control at 31 g/ha [3, 17] | plant injury at 16 g/ha ([4]; pre-emergence, Preemergence, 16 g ai/ha, scale 0 to 100 (0 no effect, 100 complete control), read-out: Plant response rating, Wheat) | plant injury at 31 g/ha [4, 19]
35%: plant injury at 250 g/ha (rice (Oryza sativa))
25%: pest or weed control at 16 g/ha ([5]; pre-emergence, Preemergence, 16 g ai/ha, scale 0 to 100 (0 no effect, 100 complete control), read-out: Plant response rating, Ragweed)
98%: pest or weed control at 31 g/ha [1, 15]
5%: pest or weed control at 31 g/ha ([3]; post-emergence, Postemergence, scale 0 to 100 (0 no effect, 100 complete control), read-out: Nutsedge, Yellow plant response rating) | pest or weed control at 62 g/ha [3, 16] | plant injury at 31 g/ha ([4]; post-emergence, Postemergence, scale 0 to 100 (0 no effect, 100 complete control), read-out: Wheat plant response rating) | plant injury at 62 g/ha [4, 18] | plant injury at 62 g/ha [4, 19] | pest or weed control at 31 g/ha ([6]; post-emergence, Postemergence, scale 0 to 100 (0 no effect, 100 complete control), read-out: Johnsongrass plant response rating) | pest or weed control at 62 g/ha [6, 22]
100%: pest or weed control at 125 g/ha ([1]; pre-emergence, Preemergence, read-out: Plant response rating (scale 0 to 100), Galium) | pest or weed control at 62 g/ha [1, 15] | plant injury at 125 g/ha ([2]; pre-emergence, Preemergence, 125 g ai/ha, read-out: Plant response rating (scale 0 to 100), Oilseed Rape) | plant injury at 31 g/ha ([2]; pre-emergence, Preemergence, scale 0 to 100 (0 no effect, 100 complete control), read-out: Plant response rating, Oilseed Rape) | plant injury at 62 g/ha ([2]; pre-emergence, Preemergence, 62 g ai/ha, scale 0 to 100 (0 no effect, 100 complete control), read-out: Plant response rating, Oilseed Rape) | pest or weed control at 125 g/ha ([5]; pre-emergence, Preemergence, read-out: Plant response rating (scale 0 to 100), Ragweed) | pest or weed control at 125 g/ha ([8]; Amaranthus retroflexus, post-emergence, 240 h, 125 g ai/ha, postemergence, 0 to 100 scale, 0 no effect, 100 complete control, read-out: Plant response rating, Pigweed) | pest or weed control at 31 g/ha ([8]; Amaranthus retroflexus, post-emergence, 240 h, Postemergence, 0 to 100 scale (0 no effect, 100 complete control), read-out: Plant response rating, Pigweed) | pest or weed control at 31 g/ha ([8]; Amaranthus retroflexus, pre-emergence, 240 h, Preemergence, 0 to 100 scale where 0 is no effect and 100 is complete control, read-out: Plant response rating, Pigweed) | pest or weed control at 125 g/ha ([10]; Echinochloa crus-galli, post-emergence, 240 h, 125 g ai/ha, postemergence, 0 to 100 scale, 0 no effect, 100 complete control, read-out: Plant response rating, Barnyardgrass)
45%: pest or weed control at 125 g/ha ([3]; pre-emergence, Preemergence, read-out: Plant response rating (scale 0 to 100), Nutsedge, Yellow) | pest or weed control at 250 g/ha [13]
80%: pest or weed control at 31 g/ha ([1]; post-emergence, Postemergence, scale 0 to 100 (0 no effect, 100 complete control), read-out: Galium plant response rating) | pest or weed control at 62 g/ha [1, 14]
50%: pest or weed control at 31 g/ha ([5]; post-emergence, Postemergence, scale 0 to 100 (0 no effect, 100 complete control), read-out: Ragweed plant response rating) | pest or weed control at 62 g/ha [5, 20]
100: Foxtail, Giant plant response rating [7, 24] | Pigweed plant response rating [8, 24] | Barnyardgrass plant response rating [10, 24]
60%: pest or weed control at 31 g/ha [5, 21]
95%: pest or weed control at 125 g/ha ([6]; pre-emergence, Preemergence, read-out: Plant response rating (scale 0 to 100), Johnsongrass) | pest or weed control at 250 g/ha [11]
75%: pest or weed control at 62 g/ha [5, 21] | pest or weed control at 31 g/ha [6, 23]
40%: plant injury at 16 g/ha ([2]; pre-emergence, Preemergence, 16 g ai/ha, scale 0 to 100 (0 no effect, 100 complete control), read-out: Plant response rating, Oilseed Rape) | pest or weed control at 125 g/ha [6, 22] | pest or weed control at 31 g/ha ([10]; Echinochloa crus-galli, post-emergence, 240 h, Postemergence, 0 to 100 scale (0 no effect, 100 complete control), read-out: Plant response rating, Barnyardgrass)
70%: plant injury at 31 g/ha ([2]; post-emergence, Postemergence, scale 0 to 100 (0 no effect, 100 complete control), read-out: Oilseed Rape plant response rating) | pest or weed control at 31 g/ha ([7]; Setaria faberi, post-emergence, 240 h, Postemergence, 0 to 100 scale (0 no effect, 100 complete control), read-out: Plant response rating, Foxtail, Giant) | Corn plant response rating (crop injury, 0 = no effect, 100 = complete kill) at 125 g/ha (corn (Zea mays); [25]) | plant injury at 125 g/ha [9, 25] | pest or weed control at 31 g/ha ([10]; Echinochloa crus-galli, pre-emergence, 240 h, Preemergence, 0 to 100 scale where 0 is no effect and 100 is complete control, read-out: Plant response rating, Barnyardgrass)
